Laboratory results taken from PMC9607427, “Novel 7-Chloro-(4-thioalkylquinoline) Derivatives: Synthesis and Antiproliferative Activity through Inducing Apoptosis and DNA/RNA Damage” (Pharmaceuticals, 2022).

Experiments:
Format in all cases: cell-based, human
[1] = test system: CCRF-CEM lymphoblasts; assay: Cell cycle and apoptosis analysis (propidium iodide flow cytometry); conditions: 24 h
Description: On the other hand, we wanted to find out whether compounds 48–50, 53, 54, 57, 59–63, 65–70, and 72 can stop the cell cycle of cancer cells, as it has been previously reported for chloroquine. For a more detailed description of the biological activity of the studied derivatives, we performed a cell cycle analysis of the most sensitive CCRF-CEM cells after 24 h of incubation with the novel 7-chloro-(4-thioalkylquinoline) derivatives (Table 4).
The effect of compounds on cell cycle distribution was determined to gain insights into the mechanism of its antiproliferative activity. […] For example, as compared with control, the percentage of cells in G2/M phases was increased by treatment with 5 × IC50 μM of compounds for 24 h (Table 4). […] As shown in (Table 4), there was a marked increase in the sub-G1 from 2.91 in untreated cells. 5-Bromo-2-deoxyuridine (BrDU) is incorporated into newly synthesized DNA, and 5-bromouridine (BrU) pulse labeling is therefore commonly used as a proliferation marker. Low BrDU and BrU incorporation into the DNA or RNA, respectively, of treated cells with all compounds at 5 × IC50 reflected inhibition of DNA and RNA synthesis, indicating irreversible apoptotic changes. The percentage of […] cells incorporating 5-bromouridine is proportional to the transcriptional activity of CCRF-CEM cells.
CCRF-CEM cells were seeded at a density of 1 × 10^6 cells per one mL in 6-well plates (TTP) and were cultivated with compounds at concentrations corresponding to 1 × or 5 × IC50 value. Together with the compounds-treated cells, a vehicle-treated sample was harvested at the same time point. After 24 h, the cells were washed with cold phosphate-buffered saline (PBS) and fixed in 70% ethanol added dropwise and stored overnight at −20 °C. Afterward, cells were washed in hypotonic citrate buffer, treated with RNase (50 µg mL^−1), and stained with propidium iodide. Flow cytometry using a 488 nm single beam laser (Becton Dickinson) was used for measurement. The cell cycle was analyzed by the software ModFitLT (Verity), and apoptosis was measured in a logarithmic model expressing the percentage of the particles with propidium content lower than cells in the G0/G1 phase (<G1) of the cell cycle. Half of the sample was used for pH3Ser10 antibody (Sigma) labeling and subsequent flow cytometry analysis of the cells in mitosis.

[2] = test system: CCRF-CEM lymphoblasts; assay: BrDU incorporation analysis (DNA synthesis); conditions: 24 h, 5 × IC50 (second value of cell)
Description: The effect of compounds on cell cycle distribution was determined to gain insights into the mechanism of its antiproliferative activity. […] For example, as compared with control, the percentage of cells in G2/M phases was increased by treatment with 5 × IC50 μM of compounds for 24 h (Table 4). […] As shown in (Table 4), there was a marked increase in the sub-G1 from 2.91 in untreated cells. 5-Bromo-2-deoxyuridine (BrDU) is incorporated into newly synthesized DNA, and 5-bromouridine (BrU) pulse labeling is therefore commonly used as a proliferation marker. Low BrDU and BrU incorporation into the DNA or RNA, respectively, of treated cells with all compounds at 5 × IC50 reflected inhibition of DNA and RNA synthesis, indicating irreversible apoptotic changes. The percentage of […] cells incorporating 5-bromouridine is proportional to the transcriptional activity of CCRF-CEM cells. Cells were cultivated and processed as described in the previous method. Before harvesting, BrDU 10 µM was added to the cells for pulse-labeling for 30 min. Then, cells were washed by PBS and fixed with −20 °C cold 70% ethanol and stored in a freezer overnight. Before analysis, the samples were incubated on ice for 30 min, washed once with PBS, and re-suspended in 2 M HCl for 30 min at rt to denature their DNA. Following neutralization with a 0.1 M Na2B4O7 (borax) solution, the cells were washed with PBS containing 0.5% Tween-20 and 1% BSA. Next, staining with primary anti-BrDU antibody (Exbio) was performed for 30 min at rt in the dark. Cells were then washed with PBS and stained with secondary anti-mouse-FITC antibody (Sigma) at rt in the dark. After another wash with PBS and incubation with propidium iodide (0.1 mg × mL^−1) and RNase A (0.5 mg × mL^−1) for 1 h at rt in the dark, cells were analyzed by flow cytometry using a 488 nm single beam laser (FACSCalibur, Becton Dickinson, Franklin Lakes, NJ, USA).

[3] = test system: CCRF-CEM lymphoblasts; assay: BrDU incorporation analysis (DNA synthesis); conditions: 24 h, 1 × IC50 (first value of cell)
[4] = 5 × IC50 (second value of cell)

Structure (SMILES) | >G2/M, % of Total Cellular Populations ([1]; 1 × IC50 (first value of cell)) [%] | G0/G1, % of Total Cellular Populations ([1]; 1 × IC50 (first value of cell)) [%] | G2/M, % of Total Cellular Populations ([1]; 1 × IC50 (first value of cell)) [%] | S, % of Total Cellular Populations ([1]; 1 × IC50 (first value of cell)) [%] | Sub-G1 Apoptosis, % of Total Cellular Populations ([1]; 1 × IC50 (first value of cell)) [%] | >G2/M, % of Total Cellular Populations [1, 4] [%] | G0/G1, % of Total Cellular Populations [1, 4] [%] | G2/M, % of Total Cellular Populations [1, 4] [%] | S, % of Total Cellular Populations [1, 4] [%] | Sub-G1 Apoptosis, % of Total Cellular Populations [1, 4] [%] | DNA Synthesis (% positive of cells) [2] [%] | DNA Synthesis (% positive of cells) [3] [%]
COc1ccccc1C(=O)OCCS(=O)(=O)c1cc[n+]([O-])c2cc(Cl)ccc12 [Compound 68, 2-[(N-Oxide 7-chloroquinolin-4-yl)sulfonyl]ethyl-2-methoxybenzoate] | 9.87 | 35.73 | 18.54 | 45.73 | 2.71 | 9.65 | 48.5 | 19.64 | 31.86 | 7.16 | 7.18 | 41.27
O=C(OCCS(=O)(=O)c1cc[n+]([O-])c2cc(Cl)ccc12)c1ccc(C(F)(F)F)cc1 [Compound 72, 2-[(N-Oxide 7-chloroquinolin-4-yl)sulfonyl]ethyl-4-(trifluoromethyl)benzoate] | 8.35 | 47.22 | 18.46 | 34.32 | 4.05 | 13.12 | 31.36 | 21.98 | 46.65 | 10.12 | 4.35 | 27.07
COc1ccc(C(=O)OCCS(=O)(=O)c2cc[n+]([O-])c3cc(Cl)ccc23)cc1[N+](=O)[O-] [Compound 69, 2-[(N-Oxide 7-chloroquinolin-4-yl)sulfonyl]ethyl-4-methoxy-3-nitrobenzoate] | 8.58 | 43.48 | 20.83 | 35.7 | 3.3 | 12.52 | 38.16 | 19.27 | 42.58 | 13.89 | 4.22 | 34.45
COc1cc(OC)c(C(=O)OCCS(=O)(=O)c2cc[n+]([O-])c3cc(Cl)ccc23)cc1OC [Compound 66, 2-[(N-Oxide 7-chloroquinolin-4-yl)sulfonyl]ethyl-2,4,5-trimethoxybenzoate] | 10.42 | 39.53 | 16.6 |  | 2.95 | 10.45 | 48.53 | 26.56 | 24.9 | 11.72 | 9.68 | 39.87
Cc1ccc([N+](=O)[O-])c(C(=O)OCCS(=O)(=O)c2cc[n+]([O-])c3cc(Cl)ccc23)c1 [Compound 70, 2-[(N-Oxide 7-chloroquinolin-4-yl)sulfonyl]ethyl-5-methyl-2-nitrobenzoate] | 10.54 | 39.54 | 21.99 | 38.46 | 3.21 | 10.33 | 33.44 | 23.25 | 43.31 | 13.75 | 4.88 | 35.58
COc1ccc(OC)c(C(=O)OCCS(=O)(=O)c2cc[n+]([O-])c3cc(Cl)ccc23)c1 [Compound 65, 2-[(N-Oxide 7-chloroquinolin-4-yl)sulfonyl]ethyl-2,5-dimethoxybenzoate] | 7.55 | 40.82 | 20.04 | 39.14 | 17.77 | 7.13 | 47.21 | 19.99 | 32.8 | 8.67 | 19.73 | 36.82
COc1ccc(C(=O)OCCS(=O)(=O)c2cc[n+]([O-])c3cc(Cl)ccc23)cc1 [Compound 63, 2-[(N-Oxide 7-chloroquinolin-4-yl)sulfonyl]ethyl-4-methoxybenzoate] | 8.56 | 42.76 | 16.81 | 40.42 | 3.41 | 11.38 | 34.13 | 17.88 | 47.99 | 12.97 | 13.54 | 41.06
